Experiments:
[1] = 10 days short term stability study on iloprost standards diluted with isotonic sodium chloride; type: physicochemical; settings: stored at 5° C., after dilution with isotonic sodium chloride solution
Method: A: A concentration iloprost equal to 20 μg/ml (was used for the optimization of the HPLC procedure, UV 210 nm)
B: 0.9% sodium chloride in milliQ water (0.9 g NaCl in 100 ml water)
C: 100 μl of A and 900 μl of B: iloprost concentration equal to 2 μg/ml
A 10 days short term stability study was conducted on the standards The test solutions were prepared 11 May 2012 and analysed 11 May 2012, n=2, 15 May 2012, and 21 May 2012 and finally […]. Between the days of analysis the samples were stored at 5° C.

[2] = cited from earlier work

CC#CCC(C)[C@H](O)/C=C/[C@@H]1[C@H]2C/C(=C/CCCC(=O)O)C[C@H]2C[C@H]1O (stereo partly drawn) [Iloprost, 5-{(E)-(1S,5S,6R,7R)-7-hydroxy-6[(E)-(3S,4RS)-3-hydroxy-4-methyl-1-octen-6-inyl]-bi-cyclo[3.3.0]octan-3-ylidene}pentanoic acid]
short term stability [1]: No indication on major instability
solubility in water [2]: very slightly soluble

— patent US20160303040A1, “INJECTABLE PHARMACEUTICAL COMPOSITIONS COMPRISING PROSTACYCLIN” (RIGSHOSPITALET, priority 2013, published 2016)
